Assay results from patent publication US9220706B2, “Inhibition of leukemic stem cells by PP2A activating agents” (Ohio State Innovation Foundation, priority 2012, dated 2015).

Experiments:
[1] = system: Lin^− SCLtTA-BCR-ABL1 cells; experiment: CFSE-mediated tracking of quiescent cells, mouse leukemic; format: cell-based; conditions: 2.5 μM FTY720
Description: (§1) CFSE-mediated tracking of cell division. Carboxyfluorescein diacetate succinimidyl diester (CFSE)-stained cells (CellTrace CFSE Proliferation Kit: Invitrogen) were cultured in the presence of the indicated drugs (dosed at time zero and at day three), and the cells were harvested after 3 or 6 days in culture, and stained with anti-CD34 PE, Annexin-V V450, and the viability stain 7-AAD (BD Bioscience) to determine the number of viable quiescent cells (CFSEmax/CD34^+/7-AAD− cells) and the percentage of quiescent and apoptosis-committed cells (CFSEmax/CD34+/Annexin V+/7-AAD±). Cells were sorted into dividing and quiescent populations for Western blot analysis. For assessment of mouse quiescent leukemic HSCs, Lin- cells from 8 week-induced SCLtTA/BCR-ABL1 mice were CFSE-stained and used as described above. Quiescent cells (CFSE^max/CD34^+) were reported as a fraction of the initial number of CD34^+ cells.

[2] = system: CFSE^max/CD34^+ NBM cells; experiment: CFSE-mediated tracking of quiescent cells, normal bone marrow; format: cell-based, human
Description: as §1

[3] = system: UCB CD34^+ cells in NSG mice; conditions: mouse, in vivo
Description: Engraftment of Human Normal and CML Cells in Immnunodeficient NSG Mice and Effect of FTY720 on Leukemic and Normal Hematopoietic Stem/Progenitor Cells. CD34+ cells were isolated from BM of CML patients (n=3) or from umbilical cord blood specimens (UCB; n=3). Note that CML samples were from patients in blastic transformation with ≧75% of Ph+ blasts. Sublethally irradiated (260 rads) 6-8 week-old NOD.Cg-Prkds^scid IL2rg^tm1WjI/SzJ (NSG, Jackson Laboratory) mice were intrafemorally injected with 1-3×10^6 CML or 10^5 UCB CD34^+ cells/mouse. The engraftment was assessed 8 weeks post-transplant by anti-human CD45 (BD Biosciences) and anti-mouse CD45.1 flow staining of intrafemoral BM aspirates and PB from tail vein. Wunderlich et al., Leukemia 24, 1785-1788 (2010). […] Disease evolution and effect of FTY720 on HSC-enriched cell fraction (CD45^+/CD34^+/CD38^−), primitive progenitors (CD45+/CD34+), myeloid (CD45^+/CD34^+/CD33^+), B-cell (CD45^+/CD19^+) and T-cell (CD45^+/CD3^+) compartments were determined before and after 4/8 weeks of FTY720 treatment by FACS-mediated analysis of BM aspirates and/or PB cells. BCR-ABL1 transcript levels were monitored by qRT-PCR-mediated (Ipsogen) analysis of BCR-ABL1/human Abl1 ratios in total RNA samples derived from BM-aspirates of CML-engrafted animals at time of engraftment (time 0) and after 8 weeks of FTY720 treatment. […]

[4] = system: human CML CD34^+ BM cells in NSG mice; format: in vivo
Description: Engraftment of Human Normal and CML Cells in Immnunodeficient NSG Mice and Effect of FTY720 on Leukemic and Normal Hematopoietic Stem/Progenitor Cells. CD34+ cells were isolated from BM of CML patients (n=3) or from umbilical cord blood specimens (UCB; n=3). Note that CML samples were from patients in blastic transformation with ≧75% of Ph+ blasts. Sublethally irradiated (260 rads) 6-8 week-old NOD.Cg-Prkds^scid IL2rg^tm1WjI/SzJ (NSG, Jackson Laboratory) mice were intrafemorally injected with 1-3×10^6 CML or 10^5 UCB CD34^+ cells/mouse. The engraftment was assessed 8 weeks post-transplant by anti-human CD45 (BD Biosciences) and anti-mouse CD45.1 flow staining of intrafemoral BM aspirates and PB from tail vein. Wunderlich et al., Leukemia 24, 1785-1788 (2010). CML- and UCB-engrafted NSG mice were treated for 8 weeks (8-10 mice/group) with either FTY720 (10 mg/kg/day; i.p.) or PBS. Disease evolution and effect of FTY720 on HSC-enriched cell fraction (CD45^+/CD34^+/CD38^−), primitive progenitors (CD45+/CD34+), myeloid (CD45^+/CD34^+/CD33^+), B-cell (CD45^+/CD19^+) and T-cell (CD45^+/CD3^+) compartments were determined before and after 4/8 weeks of FTY720 treatment by FACS-mediated analysis of BM aspirates and/or PB cells. BCR-ABL1 transcript levels were monitored by qRT-PCR-mediated (Ipsogen) analysis of BCR-ABL1/human Abl1 ratios in total RNA samples derived from BM-aspirates of CML-engrafted animals at time of engraftment (time 0) and after 8 weeks of FTY720 treatment. […] These studies were performed by IRB and IACUC approved protocols.
Fluorescent in situ hybridization (FISH). Human CD45+ cells from intrafemoral BM aspirates of untreated and 8 weeks FTY720-treated NSG mice engrafted with CD34+ CML-BC and UCB cells, were FACS-isolated, dropped onto microscope slides, and fixed in a solution of three parts methanol and one part acetic acid. A triple color, dual fusion BCR/ABL1 FISH probe was applied according to the manufacturer's instructions (Kreatech Diagnostics). Hybridized slides were counterstained with DAPI and visualized under an Olympus BX41 microscope. Images were captured using a Hammamatsu Orca II CCD camera and SmartCapture X software (Digital Scientific).

[5] = BM of NSG mice, 4 and 8 weeks FTY720 10 mg/kg/day i.p.

## CCCCCCCCc1ccc(CCC(N)(CO)CO)cc1 [FTY720]
[1]
  decrease in CFSE^max HSCs: 70-90%
[2]
  effect on frequency/number of normal quiescent CFSE^max cells: not influenced
[3]
  effect on human BM cell fractions: did not exert noteworthy effects
  numbers of circulating B-(CD19^+) and T-(CD3^+) cells: reduced numbers
[4]; BM aspirates of FTY720-treated CML-engrafted mice
  BCR-ABL1 transcripts (BCR-ABL1/hAbl1): significant decrease
[4]; [5]
  reduction in CD45^+/CD34^+ progenitors: ~85%
  reduction in CD45^+/CD34^+/CD38^− HSCs: ~97%
  reduction in total hCD45^+ cells: ~83%
[4]; CML-engrafted NSG mice
  Ph^+ hCD45^+/CD33^+ myeloid cells: also reduced
[4]; mouse, in vivo, ip, 10 mg/kg/day
  adverse effects or changes in animal behavior: have not been noted
